Measured values reported in patent US20150119435A1, “COMPOUNDS USEFUL FOR PROMOTING PROTEIN DEGRADATION AND METHODS USING SAME” (YALE UNIVERSITY, priority 2012, published 2015).

Tests used:
[1] = biological target: T1, androgen receptor (AR) (Homo sapiens, UniProt P10275); assay: SARD mediated AR degradation (western blot); settings: for AR degradation (in words): at the concentrations assayed
T1 sequence (P10275 1-920): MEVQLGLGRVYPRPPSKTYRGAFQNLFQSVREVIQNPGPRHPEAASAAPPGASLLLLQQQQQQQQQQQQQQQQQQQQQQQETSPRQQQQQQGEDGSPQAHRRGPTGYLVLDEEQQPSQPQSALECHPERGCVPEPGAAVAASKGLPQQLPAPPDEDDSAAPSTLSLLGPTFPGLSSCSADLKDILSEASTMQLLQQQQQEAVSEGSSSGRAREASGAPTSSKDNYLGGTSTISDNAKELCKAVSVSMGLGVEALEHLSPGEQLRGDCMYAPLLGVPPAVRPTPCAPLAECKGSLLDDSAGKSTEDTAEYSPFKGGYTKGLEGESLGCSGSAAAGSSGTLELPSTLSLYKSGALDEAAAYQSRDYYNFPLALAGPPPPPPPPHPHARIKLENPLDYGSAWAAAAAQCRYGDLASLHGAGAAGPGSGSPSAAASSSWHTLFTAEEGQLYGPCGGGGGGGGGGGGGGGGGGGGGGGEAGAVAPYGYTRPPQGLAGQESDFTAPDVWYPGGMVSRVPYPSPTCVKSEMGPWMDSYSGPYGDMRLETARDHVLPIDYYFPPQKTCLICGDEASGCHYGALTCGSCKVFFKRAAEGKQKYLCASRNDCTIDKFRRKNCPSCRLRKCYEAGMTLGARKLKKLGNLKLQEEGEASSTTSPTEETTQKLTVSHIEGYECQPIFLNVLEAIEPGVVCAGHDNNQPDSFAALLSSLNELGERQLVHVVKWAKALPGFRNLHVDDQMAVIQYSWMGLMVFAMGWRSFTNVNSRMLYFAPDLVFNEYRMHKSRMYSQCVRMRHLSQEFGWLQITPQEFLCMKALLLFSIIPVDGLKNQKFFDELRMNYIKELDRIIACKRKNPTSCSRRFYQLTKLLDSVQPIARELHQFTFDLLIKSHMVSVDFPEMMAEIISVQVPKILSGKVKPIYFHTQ

[2] = system: androgen dependent LnCAP cells; assay: Proliferation of androgen dependent LnCAP prostate cancer cells; type: cell-based; settings: 1 μM, several days
Excerpt: (§1) FIG. 26, comprising FIGS. 26A-26C, is a series of graphs illustrating in vitro activity of SARDS compounds. FIG. 26A: effect of SARDS on cell proliferation of LnCAPs. FIG. 26B: effect of SARDS on the proliferation of non-AR dependent cell lines. FIG. 26C: effect of SARDS on androgen independent prostate cancer cells.

[3] = system: AR-independent HEK293 cells; assay: General cell toxicity in AR-independent HEK293 cells; type: cell-based; settings: HEK293, 1 μM, 48 h
Description: as §1
(§2) To access general cell toxicity, AR-independent HEK293 and HELA cells were treated with 1 μM SARD 279.

[4] = system: AR-independent HELA cells; assay: General cell toxicity in AR-independent HELA cells; type: cell-based; settings: 1 μM, 48 h
Description: as §1, §2

## CCOCCOCCNC(=O)CCCN1C(=S)N(c2ccc(C#N)c(C(F)(F)F)c2)C(=O)C1(C)C [SARD 280, 4-(3-(4-Cyano-3-(trifluoromethyl)phenyl)-5,5-dimethyl-4-oxo-2-thioxoimidazolidin-1-yl)-N-(2-(2-ethoxyethoxyl)ethyl)butanamide]
[1]
  AR degradation (in words): affected degradation only at higher concentrations and did not achieve complete AR degradation at the concentrations assayed

## CC1(C)C(=O)N(c2ccc(C#N)c(C(F)(F)F)c2)C(=S)N1CCCCO [RU 59063, 4-[3-(4-hydroxybutyl)-4,4-dimethyl-5-oxo-2-thioxoimidazolidin-1-yl]-2-(trifluoromethyl)benzonitrile, reference compound]
[1]
  AR degradation (in words): no degradation was detected

## CC1(C)C(=O)N(c2ccc(C#N)c(C(F)(F)F)c2)C(=S)N1CCCC(=O)NCCOCCOCCOCCOC12CC3CC(CC(C3)C1)C2 [SARD 033, N-(2-(2-(2-(2-(Adamantan-1-yloxy)ethoxy)ethoxy)ethoxy)ethyl)-4-(3-(4-cyano-3-(trifluoromethyl)phenyl)-5,5-dimethyl-4-oxo-2-thioxoimidazolidin-1-yl)butanamide]
[2]
  Cell growth / proliferation of LnCAP cells: significantly attenuated cell growth

## CC1(C)C(=O)N(c2ccc(C#N)c(C(F)(F)F)c2)C(=S)N1CCCC(=O)NCCOCCOC(=O)CC12CC3CC(CC(C3)C1)C2 [SARD 279, 2-(2-(4-(3-(4-Cyano-3-(trifluoromethyl)phenyl)-5,5-dimethyl-4-oxo-2-thioxoimidazolidin-1-yl)butanamido)ethoxy)ethyl 2-(adamantan-1-yl)acetate]
[1]; read-out: DC50 (half maximum degradation concentration) of AR, AR degradation, western blot
  DC50: 1000 nM
[3]
  Cytotoxicity compared to vehicle: did not display cytotoxic results
[4]
  Cytotoxicity compared to vehicle: did not display cytotoxic results
